Assay results published in paper PMC9706020, “Isovitexin Is a Direct Inhibitor of Staphylococcus aureus Coagulase” (Journal of Microbiology and Biotechnology, 2021).

Experiments:
[1] = molecular target: T1, S. aureus coagulase (Coa); 6×His-Coa; WT-Coa (Staphylococcus aureus, UniProt Q2G1D3); assay: plate coagulation assay (agarose, fibrinogen, rabbit plasma); assay type: biochemical; details: 2.5 mg/ml Coa; 37 °C overnight; rabbit plasma as prothrombin source
T1 construct: gene SAOUHSC_00192; 6×His-tagged Coa from pET15b-Coa, expressed in E. coli BL21(DE3), Ni-NTA purified

[2] = molecular target: T1, S. aureus coagulase (Coa); 6×His-Coa; WT-Coa; assay: intrinsic fluorescence quenching; assay type: binding
[3] = molecular target: T2, S. aureus coagulase (Coa); 6×His-Coa; WT-Coa (Staphylococcus aureus, UniProt Q2G1D3, N267A); assay: biochemical
T2 construct: gene SAOUHSC_00192
From the text: (§1) intrinsic fluorescence quenching on S. aureus coagulase (Coa); 6×His-Coa; WT-Coa

[4] = molecular target: T3, S. aureus coagulase (Coa); 6×His-Coa; WT-Coa (Staphylococcus aureus, UniProt Q2G1D3, P268A); assay: biochemical
T3 construct: gene SAOUHSC_00192
From the text: as §1

[5] = molecular target: T4, S. aureus coagulase (Coa); 6×His-Coa; WT-Coa (Staphylococcus aureus, UniProt Q2G1D3, V191A); assay: biochemical
T4 construct: gene SAOUHSC_00192
From the text: as §1

[6] = molecular target: T5, S. aureus coagulase (Coa); 6×His-Coa; WT-Coa (Staphylococcus aureus, UniProt Q2G1D3, Y188A); assay: biochemical
T5 construct: gene SAOUHSC_00192
From the text: as §1

O=c1cc(-c2ccc(O)cc2)oc2cc(O)c([C@@H]3O[C@H](CO)[C@@H](O)[C@H](O)[C@H]3O)c(O)c12 [isovitexin, apigenin-6-C-β-glucopyranoside]
diameter of coagulation zone, % of control, at 128 μg/ml [1]: 47.50%
Kd [2]: 10 µM
Kd [3]: 12.4 µM
Kd [4]: 19.4 µM
Kd [5]: 23 µM
Kd [6]: 11.4 µM
